Measured values taken from patent US20170362228A1, “TETRAHYDRO-PYRIDO[3,4-b]INDOLE ESTROGEN RECEPTOR MODULATORS AND USES THEREOF” (Genentech, Inc., priority 2016, published 2017).
Where two headings read alike, the source gives them in different places.

Key:
[1] = target: T1, estrogen receptor alpha (ESR1) (Homo sapiens, UniProt P03372); assay: Breast Cancer Cell ERa High Content Fluorescence Imaging Degradation Assay (Example 901); format: cell-based; conditions: MCF7 breast cancer cells, 4 hours, plateau of the maximal effect
T1 construct: endogenous in cells; host or cells: MCF7 breast cancer cells
T1 sequence (P03372 1-595): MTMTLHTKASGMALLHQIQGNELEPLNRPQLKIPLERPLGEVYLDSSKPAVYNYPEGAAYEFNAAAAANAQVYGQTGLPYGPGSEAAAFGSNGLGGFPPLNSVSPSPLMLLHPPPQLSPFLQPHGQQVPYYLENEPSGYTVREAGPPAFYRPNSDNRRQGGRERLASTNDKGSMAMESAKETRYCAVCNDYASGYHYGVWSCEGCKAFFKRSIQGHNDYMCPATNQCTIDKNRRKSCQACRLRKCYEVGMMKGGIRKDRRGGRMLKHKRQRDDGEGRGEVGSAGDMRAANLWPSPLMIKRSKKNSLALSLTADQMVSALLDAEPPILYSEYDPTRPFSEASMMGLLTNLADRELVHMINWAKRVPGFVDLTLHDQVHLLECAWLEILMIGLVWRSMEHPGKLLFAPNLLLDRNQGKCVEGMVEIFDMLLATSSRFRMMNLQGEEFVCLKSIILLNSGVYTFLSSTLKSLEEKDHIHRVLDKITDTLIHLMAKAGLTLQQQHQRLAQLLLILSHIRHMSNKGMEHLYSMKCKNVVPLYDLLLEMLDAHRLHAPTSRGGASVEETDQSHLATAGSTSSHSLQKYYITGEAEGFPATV
Method in brief: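 MCF7 cells in phenol red-free RPMI with 10% charcoal-stripped FBS, exposed to compound at 0.05–835 nM (10-point, 1.8×, duplicate; 0.84% DMSO) for 4 h at 37 °C. Fixed cells immunostained for ESR1 (F10 mAb, Alexa 488) with Hoechst nuclear mask; nuclear ESR1 intensity imaged per cell. DMSO and 5 nM fulvestrant set 0%/100%; EC50 and Sinf by robust fit.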

MCF7 cells = assay: In vitro cell proliferation assays (Examples 902 and 903), MCF7; format: cell-based; conditions: read-out: ER-alpha MCF7 HCS (EC50)
[2] = Table 1a, DMSO and Fulvestrant define 0% and 100% changes in ESR1

SMILES	ER-alpha MCF7 HCS (S inf) [1, 2]	EC50 (MCF7 cells; Table 1a)	EC50 (MCF7 cells; Homo sapiens, MCF7, Table 1a)	ER-alpha MCF7 HCS (S inf) ([1]; Table 1b)	EC50 (MCF7 cells; Homo sapiens, MCF7, Table 1b)
C[C@@H]1Cc2c([nH]c3ccc(F)cc23)[C@@H](c2c(F)cc(C(O)C3CN(CCCF)C3)cc2F)N1CC(C)(F)CO (stereo partly drawn) [Compound 118, 3-((1R,3R)-1-(2,6-difluoro-4-((1-(3-fluoropropyl)azetidin-3-yl)(hydroxy)methyl)phenyl)-6-fluoro-3-methyl-1,3,4,9-tetrahydro-2H-pyrido[3,4-b]indol-2-yl)-2-fluoro-2-methylpropan-1-ol]	−96.56%	0.022 nM			
C[C@@H]1Cc2c([nH]c3ccccc23)[C@@H](c2c(F)cc([C@H](O)C3CN(CCCF)C3)cc2F)N1CC(F)(F)F [Compound 119, (R)-(3,5-difluoro-4-((1R,3R)-3-methyl-2-(2,2,2-trifluoroethyl)-2,3,4,9-tetrahydro-1H-pyrido[3,4-b]indol-1-yl)phenyl)(1-(3-fluoropropyl)azetidin-3-yl)methanol]	−98.93%		0.085 nM		
C[C@@H]1Cc2c([nH]c3ccccc23)[C@@H](c2ccc([C@@H](F)C3CN(CCCF)C3)cc2)N1CC(F)(F)CO [Compound 124, 2,2-difluoro-3-((1R,3R)-1-(4-((S)-fluoro(1-(3-fluoropropyl)azetidin-3-yl)methyl)phenyl)-3-methyl-1,3,4,9-tetrahydro-2H-pyrido[3,4-b]indol-2-yl)propan-1-ol]	−96.62%		0.022 nM		
C[C@@H]1Cc2c([nH]c3ccccc23)[C@@H](c2ccc([C@H](F)C3CN(CCCF)C3)cc2F)N1CC(F)(F)CO [Compound 125, 2,2-difluoro-3-((1R,3R)-1-(2-fluoro-4-((R)-fluoro(1-(3-fluoropropyl)azetidin-3-yl)methyl)phenyl)-3-methyl-1,3,4,9-tetrahydro-2H-pyrido[3,4-b]indol-2-yl)propan-1-ol]	−98.52%		0.019 nM		
C[C@@H]1Cc2c([nH]c3ccccc23)[C@@H](c2ccc([C@@H](F)C3CN(CCCF)C3)cc2F)N1CC(F)(F)CO [Compound 126, 2,2-difluoro-3-((1R,3R)-1-(2-fluoro-4-((S)-fluoro(1-(3-fluoropropyl)azetidin-3-yl)methyl)phenyl)-3-methyl-1,3,4,9-tetrahydro-2H-pyrido[3,4-b]indol-2-yl)propan-1-ol]	−95.71%		0.021 nM		
C[C@@H]1Cc2c([nH]c3ccccc23)[C@@H](c2ccc([C@H](O)C3CN(CCCF)C3)cc2)N1CC(F)(F)CO [Compound 127, 2,2-difluoro-3-((1R,3R)-1-(4-((R)-(1-(3-fluoropropyl)azetidin-3-yl)(hydroxy)methyl)phenyl)-3-methyl-1,3,4,9-tetrahydro-2H-pyrido[3,4-b]indol-2-yl)propan-1-ol]	−97.29%		0.071 nM		
C[C@@H]1Cc2c([nH]c3ccccc23)[C@@H](c2ccc([C@@H](O)C3CN(CCCF)C3)cc2)N1CC(F)(F)CO [Compound 128, 2,2-difluoro-3-((1R,3R)-1-(4-((S)-(1-(3-fluoropropyl)azetidin-3-yl)(hydroxy)methyl)phenyl)-3-methyl-1,3,4,9-tetrahydro-2H-pyrido[3,4-b]indol-2-yl)propan-1-ol]	−97.31%		0.088 nM		
C[C@@H]1Cc2c([nH]c3ccccc23)[C@@H](c2ccc([C@H](O)C3CN(CCCF)C3)cc2F)N1CC(F)(F)CO [Compound 129, 2,2-difluoro-3-((1R,3R)-1-(2-fluoro-4-((R)-(1-(3-fluoropropyl)azetidin-3-yl)(hydroxy)methyl)phenyl)-3-methyl-1,3,4,9-tetrahydro-2H-pyrido[3,4-b]indol-2-yl)propan-1-ol]	−98.76%		0.034 nM		
C[C@@H]1Cc2c([nH]c3cc(F)ccc23)[C@@H](c2c(F)cc([C@@H](O)C3CN(CCCF)C3)cc2F)N1CC(F)(F)CO [Compound 141, 3-((1R,3R)-1-(2,6-difluoro-4-((S)-(1-(3-fluoropropyl)azetidin-3-yl)(hydroxy)methyl)phenyl)-7-fluoro-3-methyl-1,3,4,9-tetrahydro-2H-pyrido[3,4-b]indol-2-yl)-2,2-difluoropropan-1-ol]	−100%		1.3 nM		
C[C@@H]1Cc2c([nH]c3cccc(F)c23)[C@@H](c2c(F)cc([C@H](O)C3CN(CCCF)C3)cc2F)N1CC(F)(F)CO [Compound 143, 3-((1R,3R)-1-(2,6-difluoro-4-((R)-(1-(3-fluoropropyl)azetidin-3-yl)(hydroxy)methyl)phenyl)-5-fluoro-3-methyl-3,4-dihydro-1H-pyrido[3,4-b]indol-2(9H)-yl)-2,2-difluoropropan-1-ol]	−101%		0.035 nM		
C[C@@H]1Cc2c([nH]c3ccccc23)[C@@H](c2c(F)cc(C(N)C3CN(CCCF)C3)cc2F)N1CC(F)(F)CO (stereo partly drawn) [Compound 145, 3-((1R,3R)-1-(4-(amino(1-(3-fluoropropyl)azetidin-3-yl)methyl)-2,6-difluorophenyl)-3-methyl-3,4-dihydro-1H-pyrido[3,4-b]indol-2(9H)-yl)-2,2-difluoropropan-1-ol]	−103%		0.072 nM		
C[C@@H]1Cc2c([nH]c3ccccc23)[C@@H](c2c(F)cc(C(O)C3CN(CCC(F)F)C3)cc2F)N1CC(F)(F)CO (stereo partly drawn) [Compound 153, 3-((1R,3R)-1-(4-((1-(3,3-difluoropropyl)azetidin-3-yl)(hydroxy)methyl)-2,6-difluorophenyl)-3-methyl-3,4-dihydro-1H-pyrido[3,4-b]indol-2(9H)-yl)-2,2-difluoropropan-1-ol]				−92%	0.17 nM
C[C@@H]1Cc2c([nH]c3ccccc23)[C@@H](c2c(F)cc([C@@](C)(O)C3CN(CCCF)C3)cc2F)N1CC(F)(F)CO [Compound 154, 3-((1R,3R)-1-(2,6-difluoro-4-((S)-1-(1-(3-fluoropropyl)azetidin-3-yl)-1-hydroxyethyl)phenyl)-3-methyl-3,4-dihydro-1H-pyrido[3,4-b]indol-2(9H)-yl)-2,2-difluoropropan-1-ol]				−98%	0.058 nM

Further lines, results first:

ER-alpha MCF7 HCS (S inf) [1, 2]	EC50 (MCF7 cells; Table 1a)	EC50 (MCF7 cells; Homo sapiens, MCF7, Table 1a)	ER-alpha MCF7 HCS (S inf) ([1]; Table 1b)	EC50 (MCF7 cells; Homo sapiens, MCF7, Table 1b)	SMILES
−99.17%		0.037 nM			C[C@@H]1Cc2c([nH]c3ccccc23)[C@@H](c2c(F)cc([C@@H](O)C3CN(CCCF)C3)cc2F)N1CC(F)(F)F [Compound 120, (S)-(3,5-difluoro-4-((1R,3R)-3-methyl-2-(2,2,2-trifluoroethyl)-2,3,4,9-tetrahydro-1H-pyrido[3,4-b]indol-1-yl)phenyl)(1-(3-fluoropropyl)azetidin-3-yl)methanol]
−98.38%		0.041 nM			C[C@@H]1Cc2c([nH]c3ccccc23)[C@@H](c2ccc([C@H](F)C3CN(CCCF)C3)cc2)N1CC(F)(F)CO [Compound 123]
−96.45%		0.037 nM			C[C@@H]1Cc2c([nH]c3ccccc23)[C@@H](c2ccc([C@@H](O)C3CN(CCCF)C3)cc2F)N1CC(F)(F)CO [Compound 130, 2,2-difluoro-3-((1R,3R)-1-(2-fluoro-4-((S)-(1-(3-fluoropropyl)azetidin-3-yl)(hydroxy)methyl)phenyl)-3-methyl-1,3,4,9-tetrahydro-2H-pyrido[3,4-b]indol-2-yl)propan-1-ol]
−101%		0.028 nM			C[C@@H]1Cc2c([nH]c3cccc(F)c23)[C@@H](c2c(F)cc([C@@H](O)C3CN(CCCF)C3)cc2F)N1CC(F)(F)CO [Compound 144, 3-((1R,3R)-1-(2,6-difluoro-4-((S)-(1-(3-fluoropropyl)azetidin-3-yl)(hydroxy)methyl)phenyl)-5-fluoro-3-methyl-3,4-dihydro-1H-pyrido[3,4-b]indol-2(9H)-yl)-2,2-difluoropropan-1-ol]
−96.1%		0.26 nM			C[C@@H]1Cc2c([nH]c3ccccc23)[C@@H](c2c(F)cc(C(F)(F)C3CN(CCCF)C3)cc2F)N1CC(C)(C)F [Compound 146, (1R,3R)-1-(4-(Difluoro(1-(3-fluoropropyl)azetidin-3-yl)methyl)-2,6-difluorophenyl)-2-(2-fluoro-2-methylpropyl)-3-methyl-2,3,4,9-tetrahydro-1H-pyrido[3,4-b]indole]
−94%		0.054 nM			C[C@@H]1Cc2c([nH]c3ccccc23)[C@@H](c2c(F)cc(C(C#N)C3CN(CCCF)C3)cc2F)N1CC(F)(F)CO (stereo partly drawn) [Compound 150, 2-(4-((1R,3R)-2-(2,2-difluoro-3-hydroxypropyl)-3-methyl-2,3,4,9-tetrahydro-1H-pyrido[3,4-b]indol-1-yl)-3,5-difluorophenyl)-2-(1-(3-fluoropropyl)azetidin-3-yl)acetonitrile]
